We go through three molecules from patent US12054510B2, “2′ and/or 5′ amino-acid ester phosphoramidate 3′-deoxy adenosine derivatives as anti-cancer compounds” (Nucana plc, priority 2014, dated 2024).

What all share (type): cell-based
In one assay the test system is MV4-11. In words: Solid tumour and haematological malignancy assay (CellTiterGlo). The settings on record: for IC50: Homo sapiens, MV4-11, 72 h, read-out: IC50 (absolute IC50).
The next assay has as its system RL. Described as above. The conditions noted are these: Homo sapiens, 72 h, read-out: MI %.
For the next assay, the system named is THP-1. Described as above. The settings on record: 72 hr.
In another assay the test system is CCRFCEM. The assay is described as above. The settings on record: Homo sapiens, CCRF-CEM, 72 h. As for the experimental part:
In vitro viability assay were performed to assess the effects of compounds on cell viability in selected cell lines over 72 hr using the CellTiterGlo (CTG, Promega-G7573) assay. […] Cell viability assay using CellTiterGlo in 96-well plate were performed. Compound treatment 72 hrs, standard growth conditions, duplicates. Compounds were dissolved to 40 mM with thawed 100%. […] After compounds were dissolved in media, media containing compounds were warmed to 37° C. in incubator and then compounds in media were added to cell plates (50 μl+50 μl) in duplicates. […] All compound solubilities were checked and recorded again, then the plates were transferred to CO2 tissue culture incubator immediately and incubated for 3 days. DMSO final concentration is 0.5%.

The test system of another assay is RL (CRL-2261). Kind of assay: ATP ViaLight plus cell viability assay. As for the experimental part: Certain compounds of the invention were subjected to further studies to test the cytotoxic activity of certain compounds of the invention and also to measure their activity against 4 haematological cancer cell lines • TdT positive CEM (Human ALL) • TdT negative K562 (Human CML) • TdT negative H1-60 (Human ANLL) • RL (CRL-2261) non-HD lymphoma • The concentrations of the active metabolite dATP (Cordycepin triphosphate) in these cell lines was also measured. • The cytotoxic activity and the intracellular 3′-dATP concentrations were also studied in the presence of hENT1, Adenosine Kinase (AK) and Adenosine Deaminase pharmacological inhibitors in CEM and RL cancer cell lines. Said inhibitors that mimic known cancer resistance mechanisms. Methods Cell Culture
HL-60, K562, CCRF-CEM and RL cell lines were cultured in RPMI-1640 medium (Sigma Aldrich, UK), which were supplemented with 10% Fetal Bovine Serum (FBS) (PAA Laboratories), 1% amphotericin B (5.5 ml) and 1% penicillin/streptomycin (5.5 ml) (PAA Laboratories) and grown in flasks at 37° C. incubator with 5% CO2.
The amount of ATP was used as a measurement of cell number and cell viability. ATP ViaLight™ plus assay kit (Lonza, USA: Product No. LT07-121) to detect ATP in cells treated in luminescence compatible 96 well plates (initial concentration of cells was 1×10^4 cells/well) with cordycepin and ProTides at concentrations of: 0, 0.1, 0.5, 1, 5 and 10 μM, followed by incubation for 72 hours at 37° C. incubator with 5% CO2. For inhibitor studies, 10 μM of NBTI or 1 μM EHNA or A-134974 was added and left for 5 minutes before adding the drugs (see section 5 for inhibitor details).
After incubation, 50 μl of cell lysis reagent was added to the 96 well plates to release the intracellular ATP, followed by 100 μl of ATP monitoring reagent (AMR). The luminescent values of each well were determined using FLUOstar OPTIMA microplate reader (BMG Labtech) which convert ATP into light by using luciferase enzyme. Therefore, the amount of luminescence produced was directly proportional to the amount of ATP.
Cell lines were treated in the same way as described above but before treatment with drugs, a number of inhibitors were added: • 1) Nitrobenzylthioinosine (NBTI) (Sigma-Aldrich, St. Louis, MO, product # N2255) blocks nucleoside transporters • 2) EHNA hydrochloride (Sigma-Aldrich, St. Louis, MO, product # E114) blocks adenosine deaminase • 3) Adenosine kinase inhibitor A-134974 dihydrochloride hydrate (Sigma-Aldrich, St. Louis, MO, product # A2846): blocks adenosine kinase
The dose-response curves of cytotoxicity of the drugs was determined using non-linear regression analysis of percentage cell viability versus concentration and EC50 values were obtained. The intracellular assay was conducted in five replicates for each condition. Intracellular assay was determined using paired t test (two-tailed) analysis of 3′ ATP/ATP concentration and p-values were obtained. For all the analysis, Prism Software program (GraphPad Software) was used and Microsoft Powerpoint® 2013 was used to plot the results.

A further assay deals with NCI-H929. Kind of assay: Solid tumour and haematological malignancy assay (CellTiterGlo). The settings on record: Homo sapiens, NCI-H929, 72 h, read-out: MI %.
The next assay relates to Z138. The description is as above. The conditions noted are these: 72 hr.

As a reminder, the IC50 is the concentration needed to halve the response being measured. As for `C[C@H](NP(=O)(OC[C@@H]1C[C@@H](O)[C@H](n2cnc3c(N)ncnc32)O1)Oc1cccc2ccccc12)C(=O)OCc1ccccc1` (stereo partly drawn) [B, (2S)-benzyl 2-(((((2S,4R,5R)-5-(6-amino-9H-purin-9-yl)-4-hydroxytetrahydrofuran-2-yl)methoxy)(naphthalen-1-yloxy)phosphoryl)amino)propanoate], the IC50 in the assay with MV4-11 and in the assay on CCRFCEM (read-out: IC50 (absolute IC50)) was 0.1 to 5 µM throughout. Further, the Emax in the assay on RL is 96%. The molecule also displayed an MI % with THP-1 of 99%. Besides, the “(FD) fold difference compared to Cordycepin = Cordycepin IC50/ProTide IC50” value with RL (CRL-2261) came to 61. Moreover, the “(FD) fold difference compared to control” value was 1 in the assay with RL (CRL-2261) (AK), 2 with RL (CRL-2261) (EHNA) and 1 in the assay with RL (CRL-2261) (NBTI).
In the case of `COC(=O)C(C)(C)NP(=O)(OC[C@@H]1C[C@@H](O)[C@H](n2cnc3c(N)ncnc32)O1)Oc1cccc2ccccc12` (stereo partly drawn) [E, Methyl 2-(((((2S,4R,5R)-5-(6-amino-9H-purin-9-yl)-4-hydroxytetrahydrofuran-2-yl)-methoxy)(naphthalen-1-yloxy)phosphoryl)amino)-2-methylpropanoate], the IC50 with MV4-11 fell in the range of 5 to 15 µM. For the same molecule, the MI % in the assay on MV4-11 (MV4-11, 72 hr) came to 101%; in the assay with THP-1, 43%; with Z138 it was 93%. Besides, the Emax in the assay with NCI-H929 turned out to be 98%; in the assay on RL, 88%. For the same molecule, the “(FD) fold difference compared to Cordycepin = Cordycepin IC50/ProTide IC50” value in the assay on RL (CRL-2261) came to 2. In addition, the “(FD) fold difference compared to control” value with RL (CRL-2261) (AK), in the assay with RL (CRL-2261) (EHNA) and in the assay on RL (CRL-2261) (NBTI) was 1 throughout.
`CCOC(=O)CCc1ccccc1OP(=O)(N[C@@H](C)C(=O)OCc1ccccc1)OC[C@@H]1C[C@@H](O)[C@H](n2cnc3c(N)ncnc32)O1` (stereo partly drawn) [F, (2S)-benzyl 2-(((((2S,4R,5R)-5-(6-amino-9H-purin-9-yl)-4-hydroxytetrahydrofuran-2-yl)methoxy)(2-(3-ethoxy-3-oxopropyl)phenoxy)phosphoryl)amino)propanoate]: the MI % in the assay on Z138 is given as 76%. In the assay on CCRFCEM (read-out: MI %), the Emax turned out to be 101%. The “(FD) fold difference compared to Cordycepin = Cordycepin IC50/ProTide IC50” value with RL (CRL-2261) is given as 7.
